Data reported in patent US20240041042A1, “1-(PYRIDYL)-5-AZINYLPYRAZOLE DERIVATIVES, AND THEIR USE FOR CONTROL OF UNDESIRED PLANT GROWTH” (Bayer Aktiengesellschaft, priority 2020, published 2024).
Where two headings read alike, the source gives them in different places.

Tests used:
Format in all cases: in vivo
[1] = tested on: Matricaria inodora (MATIN); assay: Pre-emergence herbicidal action against MATIN
How it was run: (§1)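 Application rates ran to 320 g/ha or lower, with several dosages tested on the same weeds. The compound, as wettable powder or emulsion concentrate, is sprayed pre-emergence onto soil over sown seeds; greenhouse growth follows, and effect is rated visually after roughly 3 weeks.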

[2] = tested on: Verconica persica (VERPE); assay: Pre-emergence herbicidal action against VERPE; details: dosage 320 g/ha
How it was run: as §1

Zea mays (ZEAMX) [3] = details: 20 g/ha, ZEAMX, effect in comparison to untreated controls
How it was run: (§2)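 Visual rating (% effect vs. untreated plants; 100% = plant death) made about 3 weeks after treatment. Plants had been sprayed at one-leaf stage, 2–3 weeks post-sowing, with aqueous WP/EC preparations containing 0.5% additive, 600 l/ha water volume; a, b, c mark dose levels.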

Oryza sativa (ORYSA) [4] = details: crop plant compatibility
How it was run: as §2

[5] = tested on: Digitaria sanguinalis (DIGSA); assay: Pre-emergence herbicidal action against DIGSA
How it was run: as §1

Setaria viridis (SETVI) [6] = assay: Pre-emergence herbicidal action against SETVI; details: dosage 320 g/ha
How it was run: as §1

[7] = tested on: Verconica persica (VERPE); assay: Post-emergence herbicidal action against VERPE; details: 320 g/ha, VERPE
How it was run: (§3)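 Rates were 320 g/ha or below, applied as aqueous WP/EC spray with 0.5% additive (600 l/ha) onto one-leaf-stage plants. About 3 weeks later in the greenhouse, damage was scored visually against untreated plants on a 0–100% scale, where 100% means plants died.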

Viola tricolor (VIOTR) [8] = assay: Post-emergence herbicidal action against VIOTR; details: 320 g/ha
How it was run: as §3

[9] = tested on: Alopecurus myosuroides (ALOMY); assay: Pre-emergence herbicidal action against ALOMY; details: scored visually after about 3 weeks, 100% = plants have died
How it was run: as §1

[10] = tested on: Amaranthus retroflexus (AMARE); assay: Pre-emergence herbicidal action against AMARE; details: visual scoring after about 3 weeks vs untreated controls
How it was run: as §1

[11] = tested on: Digitaria sanguinalis (DIGSA); assay: Post-emergence herbicidal action against DIGSA; details: visual rating about 3 weeks after treatment
How it was run: as §3

Setaria viridis (SETVI) [12] = assay: Post-emergence herbicidal action against SETVI
How it was run: as §3

[13] = tested on: Abutilon theophrasti (ABUTH); assay: Pre-emergence herbicidal action against ABUTH; details: Dosage column 320 g/ha (title prints 3200 g/ha); scored visually after about 3 weeks; 100% = plants have died
How it was run: as §1

[14] = tested on: Alopecurus myosuroides (ALOMY); assay: Post-emergence herbicidal action against ALOMY; details: visual rating about 3 weeks after treatment vs untreated controls (100% = plants have died, 0% = like control plants)
How it was run: as §3

Viola tricolor (VIOTR) [15] = assay: Pre-emergence herbicidal action against VIOTR
How it was run: as §1

Avena fatua (AVEFA) [16] = assay: Pre-emergence herbicidal action against AVEFA; details: 320 g/ha, visual scoring after about 3 weeks vs untreated controls
How it was run: as §1

Avena fatua (AVEFA) [17] = assay: Post-emergence herbicidal action against AVEFA; details: visual rating about 3 weeks after treatment
How it was run: as §3

[18] = tested on: Echinochloa crus-galli (ECHCG); assay: Pre-emergence herbicidal action against ECHCG; details: dosage 320 g/ha
How it was run: as §1

Lolium rigidum (LOLRI) [19] = assay: Post-emergence herbicidal action against LOLRI
How it was run: as §3

[20] = tested on: Triticum aestivum (TRZAS); details: crop plant compatibility; for Pre-emergence action against TRZAS in %: 80 g/ha, in comparison to untreated controls
How it was run: (§4)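 Crop injury rated visually in percent against untreated plants roughly 3 weeks after treatment (0% no effect, 100% plants dead). Compounds, as WP or EC with 0.5% additive in 600 l/ha water, were applied to the covering soil right after sowing; greenhouse growth. Suffixes a, b, c denote different dosages.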

Glycine max (GLXMA) [21] = details: crop plant compatibility
How it was run: as §4

Zea mays (ZEAMX) [22] = details: 20 g/ha; crop plant compatibility, effect vs untreated controls
How it was run: as §4

Oryza sativa (ORYSA) [23] = details: crop plant compatibility; for Pre-emergence action against ORYSA in %: 80 g/ha, in comparison to untreated controls
How it was run: as §4

Brassica napus (BRSNW) = details: crop plant compatibility, in comparison to untreated controls
How it was run: as §4

Lolium rigidum (LOLRI) [24] = assay: Pre-emergence herbicidal action against LOLRI; details: dosage 320 g/ha
How it was run: as §1

[25] = tested on: Polygonum convolvulus (POLCO); assay: Pre-emergence herbicidal action against POLCO; details: dosage 320 g/ha
How it was run: as §1

[26] = tested on: Triticum aestivum (TRZAS); details: crop plant compatibility, 20 g/ha, effect vs untreated controls
How it was run: as §2

[27] = tested on: Echinochloa crus-galli (ECHCG); assay: Post-emergence herbicidal action against ECHCG; details: dosage 80 g/ha
How it was run: as §3

[28] = tested on: Abutilon theophrasti (ABUTH); assay: Post-emergence herbicidal action against ABUTH; details: 80 g/ha, visual rating about 3 weeks after treatment vs untreated controls (100% = plants have died, 0% = like control plants)
How it was run: as §3

[29] = tested on: Matricaria inodora (MATIN); assay: Post-emergence herbicidal action against MATIN; details: dosage 80 g/ha
How it was run: as §3

Glycine max (GLXMA) [30] = assay: Post-emergence crop plant compatibility, GLXMA; details: post-emergence, 20 g/ha, effect in comparison to untreated controls
Protocol: Seeds of monocotyledonous and dicotyledonous weeds and crop plants are placed in sandy loam in plastic or organic planting pots, covered with soil and cultivated in a greenhouse under controlled growth conditions. 2 to 3 weeks after sowing, the test plants are treated at the one-leaf stage. The compounds of the invention, formulated in the form of wettable powders (WP) or as emulsion concentrates (EC), are then sprayed onto the green parts of the plants as aqueous suspension or emulsion with addition of 0.5% additive at a water application rate of 600 l/ha (converted). After the test plants have been kept in the greenhouse under optimum growth conditions for about 3 weeks, the activity of the preparations is rated visually in comparison to untreated controls. For example, 100% activity=the plants have died, 0% activity=like control plants.
The observed effects on selected crop plants are reported here in comparison to the untreated controls (values in %). The appendices “a”, “b” and “c” give differentiation by dosage used with otherwise the same crop plants tested.

[31] = tested on: Amaranthus retroflexus (AMARE); assay: Post-emergence herbicidal action against AMARE; details: 80 g/ha, visual rating about 3 weeks after treatment vs untreated controls (100% = plants have died, 0% = like control plants)
How it was run: as §3

[32] = 20 g/ha, effect vs untreated controls
[33] = 80 g/ha, effect in comparison to untreated controls
[34] = 80 g/ha, visual scoring after about 3 weeks vs untreated controls

## C[C@@H](Oc1nn(-c2ccc(F)cn2)c(-c2cncc(F)c2)c1Br)C(=O)O [Example I-13]
[1]; dosage 80 g/ha
  Pre-emergence action against MATIN in %: 80%
[1]; dosage 320 g/ha
  Pre-emergence action against MATIN in %: 80%
[2]
  Pre-emergence action against VERPE in %: 80%
Zea mays (ZEAMX) [3]
  Post-emergence action against ZEAMX in % (crop plant compatibility): 0%
Oryza sativa (ORYSA) [4]; [32]
  Post-emergence action against ORYSA in %: 0%
Oryza sativa (ORYSA) [4]; [33]
  Post-emergence action against ORYSA in %: 10%
[5]; [34]
  Pre-emergence action against DIGSA in %: 100%
[5]; dosage 320 g/ha
  Pre-emergence action against DIGSA in %: 100%
Setaria viridis (SETVI) [6]
  Pre-emergence action against SETVI in %: 90%
[7]
  Post-emergence action against VERPE in %: 80%
Viola tricolor (VIOTR) [8]
  Post-emergence action against VIOTR in %: 80%
[9]; 80 g/ha
  Pre-emergence action against ALOMY: 90%
[9]; 320 g/ha
  Pre-emergence action against ALOMY: 100%
[10]; 80 g/ha
  Pre-emergence action against AMARE in %: 90%
[10]; 320 g/ha
  Pre-emergence action against AMARE in %: 100%
[11]; 80 g/ha
  Post-emergence action against DIGSA in %: 90%
[11]; 320 g/ha
  Post-emergence action against DIGSA in %: 90%
Setaria viridis (SETVI) [12]; dosage 80 g/ha
  Post-emergence action against SETVI in %: 80%
Setaria viridis (SETVI) [12]; dosage 320 g/ha
  Post-emergence action against SETVI in %: 90%
[13]
  Pre-emergence action against ABUTH: 90%
[14]; 80 g/ha
  Post-emergence action against ALOMY in %: 90%
[14]; 320 g/ha
  Post-emergence action against ALOMY in %: 90%
Viola tricolor (VIOTR) [15]; 320 g/ha, Viola tricolor
  Pre-emergence action against VIOTR in %: 90%
Avena fatua (AVEFA) [16]
  Pre-emergence action against AVEFA in %: 90%
Avena fatua (AVEFA) [17]; 80 g/ha
  Post-emergence action against AVEFA in %: 80%
Avena fatua (AVEFA) [17]; 320 g/ha
  Post-emergence action against AVEFA in %: 90%
[18]
  Pre-emergence action against ECHCG in %: 90%
Lolium rigidum (LOLRI) [19]; dosage 320 g/ha
  Post-emergence action against LOLRI in %: 90%
[20]; [32]
  Pre-emergence action against TRZAS: 10%
[20]
  Pre-emergence action against TRZAS in %: 20%
Glycine max (GLXMA) [21]; [32]
  Pre-emergence action against GLXMA: 10%
Glycine max (GLXMA) [21]; pre-emergence, 80 g/ha, in comparison to untreated controls
  Pre-emergence action against GLXMA in %: 10%
Zea mays (ZEAMX) [22]
  Pre-emergence action against ZEAMX: 10%
Oryza sativa (ORYSA) [23]; [32]
  Pre-emergence action against ORYSA: 0%
Oryza sativa (ORYSA) [23]
  Pre-emergence action against ORYSA in %: 10%
Brassica napus (BRSNW); 20 g/ha
  Pre-emergence action against BRSNW in %: 10%
Brassica napus (BRSNW); 80 g/ha
  Pre-emergence action against BRSNW in %: 10%
Brassica napus (BRSNW); 320 g/ha
  Pre-emergence action against BRSNW in %: 20%
Lolium rigidum (LOLRI) [24]
  Pre-emergence action against LOLRI in %: 90%
[25]
  Pre-emergence action against POLCO in %: 100%

## O=C(O)CSc1nn(-c2ccccn2)c(-c2cncc(Cl)c2)c1Br [Example I-126]
[1]; dosage 320 g/ha
  Pre-emergence action against MATIN in %: 90%
[2]
  Pre-emergence action against VERPE in %: 80%
[26]
  Post-emergence action against TRZAS in %: 20%
Zea mays (ZEAMX) [3]
  Post-emergence action against ZEAMX in % (crop plant compatibility): 10%
Oryza sativa (ORYSA) [4]; [32]
  Post-emergence action against ORYSA in %: 0%
Oryza sativa (ORYSA) [4]; [33]
  Post-emergence action against ORYSA in %: 0%
[5]; [34]
  Pre-emergence action against DIGSA in %: 90%
[5]; dosage 320 g/ha
  Pre-emergence action against DIGSA in %: 100%
Setaria viridis (SETVI) [6]
  Pre-emergence action against SETVI in %: 90%
[27]
  Post-emergence action against ECHCG in %: 80%
[28]
  Post-emergence action against ABUTH in %: 80%
[29]
  Post-emergence action against MATIN in %: 80%
[9]; 320 g/ha
  Pre-emergence action against ALOMY: 80%
Glycine max (GLXMA) [30]
  Post-emergence action against GLXMA in %: 20%
[10]; 320 g/ha
  Pre-emergence action against AMARE in %: 100%
Setaria viridis (SETVI) [12]; dosage 80 g/ha
  Post-emergence action against SETVI in %: 80%
Viola tricolor (VIOTR) [15]; 320 g/ha, Viola tricolor
  Pre-emergence action against VIOTR in %: 100%
Viola tricolor (VIOTR) [15]; dosage 80 g/ha
  Pre-emergence action against VIOTR in %: 100%
[18]
  Pre-emergence action against ECHCG in %: 90%
Lolium rigidum (LOLRI) [19]; dosage 80 g/ha
  Post-emergence action against LOLRI in %: 80%
[31]
  Post-emergence action against AMARE in %: 80%
[20]
  Pre-emergence action against TRZAS in %: 20%
Oryza sativa (ORYSA) [23]
  Pre-emergence action against ORYSA in %: 20%
Lolium rigidum (LOLRI) [24]
  Pre-emergence action against LOLRI in %: 100%
[25]
  Pre-emergence action against POLCO in %: 90%
